# Assay results: publication PMC5108082, “Pharmacokinetics, toxicity, and cytochrome P450 modulatory activity of plumbagin” (BMC Pharmacology & Toxicology, 2016)
# “Also recorded” adds a separate entry of the source.
# Legend:
# [1] = acute toxicity test, single oral dose; format: in vivo, rat; conditions: both sexes, Wistar, rat, in vivo, rats, single oral dose
# Procedure: (§1) Plumbagin was dissolved with 20 % Tween-80 to obtain the desired concentrations. Wistar rats were fasting 2 h before administration of a single oral dose of the plumbagin. Animals were divided into eight groups of six (3 males and 3 females for each group). For the acute toxicity test, rats in each group were fed with plumbagin at a single oral dose of 500, 250, or 150 mg/kg body weight (1 mL); control group received a single oral dose of 20 % Tween-80 (1 mL). For the subacute toxicity test, rats in each group were fed with plumbagin at a daily dose of 100, 50, or 25 mg/kg body weight (1 mL) for 28 days; control group received a daily oral dose of 20 % Tween-80 for 28 days (1 mL).
# (§2) General behavioral changes of each rat was observed continuously for 1 h after each dose, intermittently every 4 h, and thereafter over a period of 24 h. […] At the end of the observation period, all animals were sacrificed under ether anesthesia (isoflurane) and vital organs (liver, lung, kidney, heart, and spleen) were removed from all animals for gross and histopathological examination. Blood sample was collected from each rat through cardiac puncture for analysis of plasma chemistry (heparin as an anticoagulant) and blood hematology (EDTA as an anticoagulant).
# [2] = subacute toxicity test, daily oral dose for 28 days; format: in vivo, rat; conditions: both sexes, Wistar, rat, in vivo, rats, daily oral doses for 28 days
# Procedure: as §1, §2
# Wistar rats = test: as above; format: in vivo, rat
# Procedure: as §1, §2
# CYP1A2 = CYP1A2 activity (phenacetin O-deethylation) in liver microsomes of treated mice; format: in vivo, mouse; conditions: for modulation of CYP1A2 activity (paracetamol produced): mice, 25, 12.5, 6.25 mg/kg daily oral for 28 days vs control
# Procedure: (§3) Mice were divided into four groups (3 male mice each). Mice in the treated groups were fed with plumbagin at a daily oral dose of 25, 12.5, or 6.25 mg/kg body weight (1 mL) for 28 days. The control group received a daily oral dose (1 mL) of 20 % Tween-80 for 28 days. At the end of the experiment period, all animals were sacrificed under ether anesthesia and livers were removed for investigation of the modulatory effect of plumbagin on hepatic CYP1A2 and CYP3A11.
# The liver samples were rinsed with ice-cold, 0.9 %NaCl, homogenized in 50 mM sodium phosphate buffer (pH 7.4) containing 0.1 mM EDTA, and centrifuged at 9000 × g for 20 min. The supernatant was ultracentrifuged at 105,000 × g for 60 min, and the resulting microsomal pellets were suspended with ice cold 1.15 % KCl solution and ultracentrifuged at 105,000 × g for 60 min. The pellets were homogenized with 50 mM potassium phosphate (pH 7.4) containing 0.1 mM EDTA and 10 % glycerol. Protein concentrations were determined by Bradford protein assay and the suspended microsomes were aliquoted and stored at −80 °C until use.
# Phenacetin O-deethylation and nifedipine oxidation were used as selective markers for CYP1A2 and CYP3A11 activities, respectively. The substrate concentration equivalent to the apparent Km (Michaelis-Menten constant) of each individual CYP450 was used in the experiment. Final concentration of organic solvent in the incubation mixture was less than 1 %. The incubation conditions for determination enzyme activity to both CYP450 isoforms were according to the previously described methods.
# (§4) The incubation mixture of 500 μL containing the selective substrate (20 μM phenacetin and 40 μm nifedipine for CYP1A2 and CYP3A11, respectively), mice liver microsomes (in 100 mM phosphate buffer pH 7.4) was pre-incubated at 37 °C for 5 min in a shaking water bath. […] Concentrations of paracetamol (metabolite of CYP1A2) and oxidized nifedipine (metabolite of CYP3A11) in the incubation mixtures were determined using HPLC with UV detection. […]
# CYP3A11 = conditions: mouse, in vivo, po
# Procedure: as §3
# The liver samples were rinsed with ice-cold, 0.9 %NaCl, homogenized in 50 mM sodium phosphate buffer (pH 7.4) containing 0.1 mM EDTA, and centrifuged at 9000 × g for 20 min. […] Protein concentrations were determined by Bradford protein assay and the suspended microsomes were aliquoted and stored at −80 °C until use. […]
# as §4
# CYP2C19 = conditions: cited from earlier work
# [3] = 25 mg/kg body weight daily for 28 days
# [4] = 25 mg/kg daily oral for 28 days, median (interquartile range)
compound,measurement,setting,value
"CC1=CC(=O)c2c(O)cccc2C1=O [plumbagin, 5-hydroxy-2-methyl-1,4-naphthoquinone]",LD50 at 14 days,"[1]; read-out: 50 % lethal dose (LD50), acute toxicity",250 mg/kg
same,MTD at 14 days,"[1]; read-out: maximum tolerated dose, acute toxicity",150 mg/kg
same,LD50 at 28 days,"[2]; read-out: 50 % lethal dose (LD50), subacute toxicity",50 to 100 mg/kg
same,MTD at 28 days,"[2]; read-out: maximum tolerated dose, subacute toxicity",25 mg/kg
same,"behavior, signs of toxicity, water and food consumption, body weight",Wistar rats; [3],"no abnormality in behavior, sign of toxicity, nor changes in water and food consumption, as well as body weights"
same,"histopathological examination (liver, kidney, heart, spleen, lung)",Wistar rats; [3],no significant change in size and morphology
same,survival,Wistar rats; [3],all rats survived
same,changes in blood chemistry and hematology,Wistar rats; 25 mg/kg body weight daily for 28 days vs control,no significant changes in blood chemistry and hematology; also recorded: no significant change in hematological and blood biochemistry profiles
same,Blood morphology,Wistar rats; 25 mg/kg daily oral for 28 days,Normal
same,ALT,Wistar rats; [4],30 (11) U/L
same,AST,Wistar rats; [4],101 (15) U/L
same,BUN,Wistar rats; [4],22.0 (7.5) mg/dL
same,Cholesterol,Wistar rats; [4],73 (6) mg/dL
same,Creatinine,Wistar rats; [4],0.50 (0.00) mg/dL
same,Eosinophils,Wistar rats; [4],0.00 (1.00) ×10^3/μL
same,Glucose,Wistar rats; [4],230 mg/dL
same,Hematocrit,Wistar rats; [4],47.8 (2.6) %
same,Hemoglobin,Wistar rats; [4],14.4 (1.2) g/dL
same,Lymphocytes,Wistar rats; [4],7.59 (0.31) ×10^3/μL
same,Monocytes,Wistar rats; [4],0.00 (1.00) ×10^3/μL
same,Neutrophils,Wistar rats; [4],2.20 (0.63) ×10^3/μL
same,Platelets count,Wistar rats; [4],885.50 (73.75) ×10^3/μL
same,RBC,Wistar rats; [4],8.16 (0.72) ×10^6/μL
same,Triglyceride,Wistar rats; [4],110 (9) mg/dL
same,WBC,Wistar rats; [4],9.40 (0.65) ×10^3/μL
same,Glucose,"Wistar rats; 25 mg/kg daily oral for 28 days, median (interquartile range), listed as Plumbagin",230 (59) mg/dL
same,rats died,Wistar rats; 50 mg/kg body weight daily,two rats
same,rats with toxic signs and symptoms,Wistar rats; 50 mg/kg body weight daily,2/6
same,time to death,Wistar rats; 50 mg/kg body weight daily,12 to 16 days
same,rats died,Wistar rats; 100 mg/kg body weight daily,All rats
same,rats with toxic signs and symptoms,Wistar rats; 100 mg/kg body weight daily,6/6
same,time to death,Wistar rats; 100 mg/kg body weight daily,6 to 10 days
same,gender-specific toxicity,Wistar rats; all dose levels,No gender-specific toxicity was observed
same,modulation of CYP1A2 activity (paracetamol produced),CYP1A2,no significant change; also recorded: not found to induce or inhibit
same,modulation of CYP1A2 activity (paracetamol produced),CYP1A2; listed as Plumbagin,did not significantly modulate
same,trend of CYP1A2 activity,CYP1A2; particularly at the lowest dose level of 6.25 mg/kg body weight,tended to be reduced
same,trend of CYP3A11 mRNA expression and enzyme activity,CYP3A11,a trend of reduction
same,IC50,CYP2C19,780 nM
